Results on 64 molecules are retold here after the C3SDB collision cross section collection.

For the first data set the following is noted: [M+H-H2O]+; instrument: TW; calibrated with polyalanine and drug standards.
With `COc1ccc2c(c1)OC[C@@H](Cc1ccc(OC)c(OC)c1)[C@@H]2O` [3-DESHYDROXYSAPPANOL TRIMETHYL ETHER], the “collision cross section (N2)” value is given as 172.3 Å². As for `Cc1cc(O)c(C)c(O)c1C(=O)O` [3-METHYLORSELLINIC ACID], the “collision cross section (N2)” value amounted to 127.5 Å².

Staying with this data set, now noted: [M+H]+; instrument: TW; calibrated with polyalanine and drug standards.
For the molecule `COc1cc2oc3cc(OC)c(OC)c(CC=C(C)C)c3c(=O)c2c(O)c1CC=C(C)C` [1-HYDROXY-3,6,7-TRIMETHOXY-2,8-DIPRENYLXANTHONE], the “collision cross section (N2)” value is listed as 209.7 Å².

Take `COc1cc(O)c(C(=O)/C=C/c2ccc(O)c(OC)c2)c(OC)c1` [2',4-DIHYDROXY-3,4',6'-TRIMETHOXYCHALCONE]: the “collision cross section (N2)” value is 177.5 Å². As to `O=c1[nH]c2cc(Cl)c(Cl)cc2[nH]c1=O` [2,3-DIHYDROXY-6,7-DICHLOROQUINOXALINE], the “collision cross section (N2)” value is given as 143 Å².

Turning to `COC1=CC(=O)C(C(=O)c2ccccc2)=CC1=O` [2-BENZOYL-5-METHOXYBENZOQUINONE], the “collision cross section (N2)” value is on record as 145.4 Å². Regarding `CCOc1cccc(C(=O)c2ccc(O)c(O)c2O)c1` [3,4-DIDESMETHYL-5-DESHYDROXY-3'-ETHOXYSCLEROIN], the “collision cross section (N2)” value is 160.3 Å². In the case of `O=c1c(O)c(-c2ccccc2)oc2cc(O)ccc12` [3,7-DIHYDROXYFLAVONE], the “collision cross section (N2)” value is on record as 152.1 Å².

With `CC(=O)c1cc2ccccc2oc1=O` [3-ACETYLCOUMARIN], the “collision cross section (N2)” value turned out to be 131.6 Å².

With `COc1ccc(-c2oc3ccccc3c(=O)c2O)cc1OC` [3-HYDROXY-3',4'-DIMETHOXYFLAVONE], the “collision cross section (N2)” value is 164.1 Å². Still for that read-out and setting: as for `CC1(C)CC2C1CC[C@]1(C)CCC3C(C(=O)O)CC(=O)O[C@@]32C1` (some centres undefined) [3-HYDROXY-4-(SUCCIN-2-YL)-CARYOLANE delta-LACTONE], the figure is 174.9 Å²; as for `O=c1c(O)c(-c2ccccc2)oc2ccccc12` [3-HYDROXYFLAVONE], 146.3 Å²; as for `CC(C)Cn1c(=O)n(C)c(=O)c2[nH]cnc21` [3-ISOBUTYL-1-METHYLXANTHINE (IBMX)], 147.8 Å².

Turning to `Cn1c(=O)[nH]c(=O)c2[nH]cnc21` [3-METHYLXANTHINE], the “collision cross section (N2)” value is 127.9 Å². For the molecule `C[C@]12CC[C@@H](O)C[C@H]1CCc1ccccc12` [3alpha-HYDROXY-4,4-BISNOR-8,11,13-PODOCARPATRIENE], the “collision cross section (N2)” value worked out at 140.4 Å². Consider `Cc1cc(=O)oc2c(O)c(O)ccc12` [4-METHYLDAPHNETIN], for which the “collision cross section (N2)” value was found to be 134.8 Å². On to `COc1cc(O)c(C(C)=O)c(O)c1` [4-O-METHYLPHLORACETOPHENONE], for which the “collision cross section (N2)” value is on record as 130.5 Å². As to `O=c1c(-c2ccccc2)coc2cc(O)cc(O)c12` [5,7-DIHYDROXYISOFLAVONE], the “collision cross section (N2)” value came to 152.3 Å². On the same count and under the same terms, the figure for `O=C(O)c1cc2cc(F)ccc2[nH]1` [5-FLUOROINDOLE-2-CARBOXYLIC ACID] is 145.3 Å²; for `COc1ccc2oc(-c3ccccc3OC)cc(=O)c2c1` [6,2'-DIMETHOXYFLAVONE] it is 161.4 Å². Same read-out and setting: the figure for `COc1cccc(-c2cc(=O)c3cc(OC)ccc3o2)c1` [6,3'-DIMETHOXYFLAVONE] is 162.1 Å². As for `O=c1cc(-c2ccccc2O)oc2cc(O)ccc12` [7,2'-DIHYDROXYFLAVONE], the “collision cross section (N2)” value is 152.4 Å².

On to `O=c1cc(-c2ccc(O)cc2)oc2cc(O)ccc12` [7,4'-DIHYDROXYFLAVONE], for which the “collision cross section (N2)” value came out at 153.2 Å². Consider `O=c1cc(-c2ccccc2)oc2c(O)c(O)ccc12` [7,8-DIHYDROXYFLAVONE], for which the “collision cross section (N2)” value was 152 Å². Take `CC(=O)O[C@H]1C[C@@H](OC(C)=O)C(C)(C)C2CC(=O)[C@]3(C)C(CC[C@@]4(C)[C@H](c5ccoc5)OC(=O)[C@H]5O[C@]543)[C@]21C` (some centres undefined) [7-DEACETOXY-7-OXOKHIVORIN]: the “collision cross section (N2)” value is listed as 217.7 Å². The same measure, in the same setting: the figure for `CC(C)CCC[C@@H](C)[C@H]1CC[C@H]2[C@@H]3C(=O)C=C4C[C@@H](O)CC[C@]4(C)[C@H]3CC[C@]12C` [7-OXOCHOLESTEROL] is 208.3 Å²; for `CC1(C)C(=O)[C@@H]2C[C@@]3(O)C4=CC(=O)O[C@@H](c5ccoc5)[C@]4(C)CCC3C(C)(C2=O)[C@H]1CC(=O)O` (some centres undefined) [8-HYDROXYCARAPINIC ACID] it is 202.9 Å².

In the case of `Cc1ccc2c(c1)CC[C@H]1CC(=O)CC[C@]21C` [13-METHYL-4,4-BISNOR-8,11,13-PODOCARPATRIEN-3-ONE], the “collision cross section (N2)” value is listed as 148.1 Å². Consider `COc1ccc(-c2cc(=O)c3c(O)cc(O)cc3o2)cc1` [ACACETIN], for which the “collision cross section (N2)” value was 160.3 Å². Still for that read-out and setting: as for `COc1ccc2c(c1)c(CC(=O)OCC(=O)O)c(C)n2C(=O)c1ccc(Cl)cc1` [ACEMETACIN], the figure is 191 Å²; as for `CC(=O)Nc1ccc(OC(=O)c2ccccc2O)cc1` [ACETAMINOSALOL], 168.2 Å²; as for `CC(=O)Nc1cc([As](=O)(O)O)ccc1O` [ACETARSOL], 151.5 Å². As to `CC(=O)Nc1nnc(S(N)(=O)=O)s1` [ACETAZOLAMIDE], the “collision cross section (N2)” value was determined as 140.7 Å². For `O=c1ccc2cc(O[C@@H]3O[C@H](CO)[C@@H](O)[C@H](O)[C@H]3O)c(O)cc2o1` [AESCULIN], the “collision cross section (N2)” value came to 174 Å². Consider `CC[C@H]1[C@@H]2C[C@H]3[C@@H]4N(C)c5ccccc5[C@]45C[C@@H]([C@H]2[C@H]5O)N3[C@@H]1O` [AJMALINE], for which the “collision cross section (N2)” value is on record as 172.9 Å². Take `CCCSc1ccc2nc(NC(=O)OC)[nH]c2c1` [ALBENDAZOLE]: the “collision cross section (N2)” value is recorded as 162 Å².

With `O=c1ncnc2[nH][nH]cc1-2` [ALLOPURINOL], the “collision cross section (N2)” value came out at 123 Å². Same read-out and setting: the figure for `C=CCc1ccccc1OCC(O)CNC(C)C` (centres undefined) [ALPRENOLOL] is 158.6 Å²; for `CN(C)c1nc(N(C)C)nc(N(C)C)n1` [ALTRETAMINE] it is 145.6 Å²; for `CC(=O)OCC(=O)[C@@]12OC3(CCCC3)O[C@@H]1C[C@H]1[C@@H]3CCC4=CC(=O)C=C[C@]4(C)[C@@]3(F)[C@@H](O)C[C@@]12C` [AMCINONIDE] it is 214.9 Å². Same read-out and setting: as for `CN1C2CCC1CC(OC(c1ccccc1)c1ccccc1N)C2` (centres undefined) [AMINOBENZTROPINE], the figure is 180.6 Å². `CCC1(c2ccc(N)cc2)CCC(=O)NC1=O` (centres undefined) [AMINOGLUTETHIMIDE]: the “collision cross section (N2)” value is given as 164.8 Å². As for `Nc1ccc(C(=O)NCC(=O)O)cc1` [AMINOHIPPURIC ACID], the “collision cross section (N2)” value came to 155.3 Å². On the same count and under the same terms, the figure for `Nc1nccs1` [AMINOTHIAZOLE] is 117.2 Å²; for `Clc1ccc2c(c1)C(N1CCNCC1)=Nc1ccccc1O2` [AMOXAPINE] it is 171.2 Å²; for `CC1(C)S[C@@H]2[C@H](NC(=O)[C@H](N)c3ccc(O)cc3)C(=O)N2[C@H]1C(=O)O` [AMOXICILLIN] it is 187.4 Å². Turning to `COc1cc(NS(C)(=O)=O)ccc1Nc1c2ccccc2nc2ccccc12` [AMSACRINE], the “collision cross section (N2)” value came out at 193.1 Å². On to `COc1ccc([C@@H](C)C(=O)c2ccc(O)cc2O)cc1` [ANGOLENSIN (R)], for which the “collision cross section (N2)” value was 162 Å². On the same count and under the same terms, the figure for `COc1ccc(C(=O)N2CCCC2=O)cc1` [ANIRACETAM] is 146.6 Å²; for `O=C1c2c(O)cccc2Cc2cccc(O)c21` [ANTHRALIN] it is 142.6 Å²; for `COc1cc(O)cc(OC)c1OC` [ANTIAROL] it is 133.5 Å².

As to `Cc1cc(=O)n(-c2ccccc2)n1C` [ANTIPYRINE], the “collision cross section (N2)” value is given as 137.8 Å². As for `COc1cc2c(cc1OC)-c1c(oc3cc(O)cc(O)c3c1=O)CO2` [APOTOXICAROL], the “collision cross section (N2)” value stood at 173.8 Å². On to `COc1cc(OC)c(OC)cc1C=O` [ASARYLALDEHYDE], for which the “collision cross section (N2)” value was determined as 138.3 Å². As for `CC(C)NCC(O)COc1ccc(CC(N)=O)cc1` (centres undefined) [ATENOLOL], the “collision cross section (N2)” value is reported as 159 Å². As for `O=C(O)C1=CC(=C(c2ccc(O)c(C(=O)O)c2)c2ccc(O)c(C(=O)O)c2)C=CC1=O` [AURIN TRICARBOXYLIC ACID], the “collision cross section (N2)” value is on record as 197.6 Å². `C/C(=C(\CCOP(=O)(O)O)SC(=O)c1ccccc1)N(C=O)Cc1cnc(C)nc1N` [BENFOTIAMINE]: the “collision cross section (N2)” value was 192.7 Å².

Still in this data set, the particulars now being: [M+Na]+; instrument: TW; calibrated with polyalanine and drug standards.
For the molecule `CC(=O)N[C@@H]1[C@@H](O)[C@H](O)[C@@H](CO)O[C@H]1O` [ACETYLGLUCOSAMINE], the “collision cross section (N2)” value stood at 153.5 Å². `CC(=O)NCCCCCC(=O)O` [ACEXAMIC ACID]: the “collision cross section (N2)” value was determined as 141.4 Å². The same measure, in the same setting: the figure for `C=CCS(=O)C[C@H](N)C(=O)O` (some centres undefined) [ALLIIN] is 134.5 Å²; for `OC[C@H]1O[C@@H](Oc2ccc(O)cc2)[C@H](O)[C@@H](O)[C@@H]1O` [ARBUTIN] it is 164.4 Å². Take `C[C@H]1[C@H](C)CC[C@]2(C(=O)O)CC[C@]3(C)C(=CC[C@@H]4[C@@]5(C)C[C@@H](O)[C@H](O)[C@@](C)(CO)[C@@H]5CC[C@]43C)[C@H]12` [ASIATIC ACID]: the “collision cross section (N2)” value was 233.5 Å². `CC[C@H](C)[C@H]1O[C@]2(C=C[C@@H]1C)C[C@@H]1C[C@@H](C/C=C(\C)[C@@H](O[C@H]3C[C@H](OC)[C@@H](O[C@H]4C[C@H](OC)[C@@H](O)[C@H](C)O4)[C@H](C)O3)[C@@H](C)/C=C/C=C3\CO[C@@H]4[C@H](O)C(C)=C[C@@H](C(=O)O1)[C@]34O)O2` [Abamectin B1A]: the “collision cross section (N2)” value amounted to 290.5 Å².

Staying with this data set, now noted: [M]+; instrument: TW; calibrated with polyalanine and drug standards.
`C=C1CC[C@H]2C(C)(C)CCC[C@]2(C)[C@H]1CC/C(C)=C/Cn1c[n+](C)c2ncnc(N)c21` [AGELASINE D]: the “collision cross section (N2)” value is recorded as 212.2 Å².
